[ ]: non-standard residue; d: D form.
What was measured:
Format in all cases: in vivo
[1] = system: bFGF-induced angiogenesis; test: chick CAM assay, bFGF-induced angiogenesis, intravenous inhibitors; conditions: for inhibition of bFGF-induced CAM angiogenesis: bFGF 150 ng/ml, 75 μg antibody or peptide intravenously, 72 hours
Procedure: (§1) Ten day old chick embryos were obtained from McIntyre Poultry (Lakeside, Calif.) and incubated at 37C with 60% humidity. A small hole was made through the shell at the end of the egg directly over the air sac with the use of a small crafts drill (Dremel, Division of Emerson Electric Co., Racine, Wis.). A second hole was drilled on the broad side of the egg in a region devoid of embryonic blood vessels determined previously by candling the egg. […] A 1.0 centimeter (cm)×1.0 cm square window was cut through the shell over the dropped CAM with the use of a small model grinding wheel (Dremel). The small window allowed direct access to the underlying CAM.
(§2) Angiogenesis was induced by placing a 5 millimeter (mm)×5 mm Whatman filter disk (Whatman Filter paper No. 1) saturated with Hanks Balanced Salt Solution (HBSS, GIBCO, Grand Island, N.Y.) or HBSS containing preselected cytokines at a preselected concentration, i.e. one to test the effect on angiogenesis, on the CAM of a 10 day chick embryo in a region devoid of blood vessels and the windows were later sealed with tape. Angiogenesis was monitored by photomicroscopy after 72 hours. CAMs were snap frozen then 6 μm cryostat sections were fixed with acetone and stained by immunofluorescence as described in Example 2B and 2C with 10 μg/ml of selected anti-integrin antibodies, including those directed against αvβ5 as described in Example 1.
(§3) Angiogenesis was first induced on 10 day old chick embryos by application of growth factor-saturated filter disks. Specifically, in the first assays, angiogenesis was induced by exposure to either bFGF or VEGF, each at a concentration of 150 ng/ml.
(§4) For application of growth factors, during the candling procedures, prominent blood vessels were selected and marks were made on the egg shell to indicate their positions. The holes were drilled in the shell, the CAMs were dropped and growth factor-saturated filter papers were then separately placed on the CAMs as described above. The windows were sealed with sterile tape and the embryos were replaced in the incubator.
(§5) Twenty four hours later, a second small window was carefully cut on the lateral side of the egg shell directly over prominent blood vessels selected previously. The outer egg shell was carefully removed leaving the embryonic membranes intact. The shell membrane was made transparent with a small drop of mineral oil (Perkin-Elmer Corp, Norwalk, Conn.) which allowed the blood vessels to be visualized easily. Then, phosphate buffered saline (PBS), 75 μg of purified sterile anti-integrin antibodies or 75 μg of synthetic peptides (cyclic peptide RGDfV, SEQ ID NO 4 and control cyclic peptide RADfV, SEQ ID NO 5) in PBS were injected into blood vessels apparent on the growth factor-induced CAMs. The windows were sealed with tape and the embryos were allowed to incubate until 72 hours.
The filter discs and representative surrounding CAM tissues were photographed in a stereomicroscope (FIGS. 3A–3F and FIGS. 5A–5F) and the mean angiogenic index +/− the standard error was determined for 12 CAMs per condition (FIGS. 4A–4B and FIGS. 6A–6B). Angiogenesis was scored for each embryo in a double blind manner by analyzing the number and extent of branching of blood vessels within the area of each disc. The scores ranged from 1 (low) to 4 (high) and the angiogenesis index was determined by subtracting a background of 1 from all data. […]

[2] = system: VEGF-induced angiogenesis; test: chick CAM assay, VEGF-induced angiogenesis, intravenous inhibitors; conditions: for inhibition of VEGF-induced CAM angiogenesis: VEGF 150 ng/ml, 75 μg antibody or peptide intravenously, 72 hours
Procedure: as §1, §2, §3, §4, §5
The filter discs and representative surrounding CAM tissues were photographed in a stereomicroscope (FIGS. 3A–3F and FIGS. 5A–5F) and the mean angiogenic index +/− the standard error was determined for 12 CAMs per condition (FIGS. 4A–4B and FIGS. 6A–6B). Angiogenesis was scored for each embryo in a double blind manner by analyzing the number and extent of branching of blood vessels within the area of each disc. The scores ranged from 1 (low) to 4 (high) and the angiogenesis index was determined by subtracting a background of 1 from all data.
In a further assay performed in the CAM model having VEGF-induced angiogenesis, 2 μg of peptides 85189 (SEQ ID NO 9) and the inert salt counterpart 121974 were separately intravenously injected as previously described. The effect of the peptides was assessed in comparison to that of control peptide 69601 (SEQ ID NO 5) and to untreated (labeled as NT) preparations.
The effect of the peptides of VEGF-induced angiogenesis is measured through a determination of the number of blood vessel branch points. […]

UCLAP-3 tumors = test: tumor regression on chick CAM, UCLAP-3 tumors, intravenous peptide; conditions: 100 ug peptide intravenously 18 hours postimplantation; 48 hours more
Procedure: (§6) In one particular set of assays, additional tumor regression assays were performed with the αvβ5-reactive peptide 85189 (SEQ ID NO 9) against 69601 (SEQ ID NO 5) as a control. The assays were performed as described above with the exception that 100 ug of peptide was intravenously injected into the CAM at 18 hourst postimplantation of the various tumors which in this case included UCLAP-3, M21-L and FgM tumor types. After 48 hours more, the tumors were then resected and wet weights were obtained.

M21-L tumors = test: tumor regression on chick CAM, M21-L tumors, intravenous peptide; conditions: 100 ug peptide intravenously 18 hours postimplantation; 48 hours more
Procedure: as §6

FgM tumors = test: tumor regression on chick CAM, FgM tumors, intravenous peptide; conditions: 100 ug peptide intravenously 18 hours postimplantation; 48 hours more
Procedure: as §6

CS-1 melanoma tumors = test: CS-1 melanoma tumor growth on chick embryo CAM, intravenous mAbs; conditions: 100 to 300 μg mAb once intravenously; 7 days
Procedure: Angiogenesis is induced in the CAM assay system by direct apposition of a tumor fragment on the CAM. Preparation of the chick embryo CAM is identical to the procedure described above. Instead of a filter paper disk, a 50 milligram (mg) to 55 mg in weight fragment of one αvβ5-negative tumor resulting from growth of cell line suspensions described below, is placed on the CAM in an area originally devoid of blood vessels.
In one embodiment, hamster melanoma cells, CS-1, obtained from Dr. Caroline Damsky from University of California at San Francisco, were used in the CAM assay as described above for formation of melanoma tumors. Following the transfer of approximately a 50 mg CS-1 tumor fragment on a new 10 day chick embryo CAM, separate preparations received an intravenous injections of either 100 μg or 300 μg of P1F6 antibody, LM609 antibody or control CSAT (anti-β1) antibody. An additional control included a preparation that received no treatment. The results are discussed below in Example 6D.
Tumor-induced blood vessels prepared above were also treated with mAbs applied by intravenous injection. […] After this time period, the tumors were resected and analyzed by their weight to determine the effect of antibody exposure on tumor growth or suppression.

Molecule | inhibition of bFGF-induced CAM angiogenesis [1] | inhibition of VEGF-induced CAM angiogenesis [2] | effect on tumor wet weight, UCLAP-3 (UCLAP-3 tumors) | effect on tumor wet weight, M21-L (M21-L tumors) | effect on tumor wet weight, FgM (FgM tumors) | inhibition of VEGF-induced CAM angiogenesis (number of blood vessel branch points) ([2]; 2 μg peptide intravenously) | effect on CAM angiogenesis in response to bFGF (angiogenesis index) ([1]; bFGF 1.0 μg/ml, antibodies 75 μg per embryo, calphostin C 100 nM) | effect on CAM angiogenesis induced by VEGF (angiogenesis index) ([2]; VEGF 1.0 μg/ml, antibodies 75 μg per embryo, calphostin C 100 nM) | inhibition of CS-1 tumor growth (CS-1 melanoma tumors)
cyclo(Arg-Ala-Asp-D-Phe-Val) (cyclo(RAD[dF]V); SMILES CC(C)[C@@H]1NC(=O)[C@@H](Cc2ccccc2)NC(=O)[C@H](CC(=O)O)NC(=O)[C@H](C)NC(=O)[C@H](CCCNC(=N)N)NC1=O) [peptide 69601, reference compound] | did not effect angiogenesis | did not effect angiogenesis | lack of effect | lack of effect | lack of effect | – | – | – | –
cyclo(Arg-Gly-Asp-D-Phe-NMeVal) [peptide 85189] | – | – | reduction in tumor weight | reduction in tumor weight | reduction in tumor weight | completely inhibited angiogenesis | – | – | –
LM609: mouse monoclonal antibody, anti-αvβ3 (antibody, V domains shown) VH: EVQLEESGGGLVKPGGSLKLSCAASGFAFSSYDMSWVRQIPEKRLEWVAKVSSGGGSTYYLDTVQGRFTISRDNAKNTLYLQMSSLNSEDTAMYYCARHNYGSFAYWGQGTLVTVSA VL: ELVMTQTPATLSVTPGDSVSLSCRASQSISNHLHWYQQKSHESPRLLIKYASQSISGIPSRFSGSGSGTDFTLSINSVETEDFGMYFCQQSNSWPHTFGGGTKLEIKRA | inhibited bFGF-induced angiogenesis | little effect on angiogenesis | – | – | – | – | blocked angiogenesis | failed to do so | also inhibited tumor growth, however, less effective than that with P1F6
